# Assay: Solubility of precipitated copper glycerolate
# Conditions: suspended in water, pH reduced with sulphuric acid
substance,measurement,value
copper (II) glycerolate [copper glycerolate],pH at which the suspended precipitate re-dissolved,around 4

# Reference: patent US9420795B2, “Glycolate formulation for preserving wood and like materials” (Matterworks One Limited, priority 2011, dated 2016)
